In patent US8983257B2, “Therapeutic light delivery apparatus, method, and system” (Nomir Medical Technologies, Inc., priority 2002, dated 2015):
“And” between values parts separate entries of the source, which are not always exact repeats. Equal entries are not always repeated. “Also recorded” adds a separate entry of the source.

Assays:
[1] = tested on: nasal colonization of MSSA; assay: Human study Part Two: nasal colonization of erythromycin resistant MSSA, NOVEON laser plus 2% erythromycin paste; assay type: in vivo, Staphylococcus aureus; settings: six patients, before phototherapy
Method: (§1) A second human study was conducted, to further evaluate the therapeutic potential of the NOVEON™ laser system, including its ability to reverse drug resistance in bacteria. The study was conducted in a similar manner as Part One, above. Outcome measures assessed included both laboratory study and clinical observations.
(§2) Positive anterior nares cultures were obtained in six patients (12 nostrils) having nasal colonization of MRSA or MSSA, before initiating bacterial photodamage through doses of phototherapeutic near infrared radiation.
(§3) The swab was inserted approximately 1 cm in to the anterior nares of the subject, rotated 360 degrees several times and removed.
(§4) The laser was calibrated before the first treatment of the day and between each patient. The NOVEON™ laser was used for four six-minute treatments of the nares at the following sets of dosimetries (Tables 45), which were evaluated for safety in previous studies. Utilizing a 10 cm flat-top diffuser, each patient underwent exposure with the Noveon for […] (energy density—207 J/cm2) to each anterior nostril on Day 1 and on Day 3. The treatment was divided into two parts, an approximately 3-minute exposure using a combination of 870 nm and 930 nm and an approximately 3-minute exposure of 930 nm alone. Temperatures of the nares were recorded every 30 seconds with an IR temperature thermometer.

[2] = tested on: nasal colonization of MRSA; assay: Human study Part Two: nasal colonization of erythromycin resistant MRSA, NOVEON laser plus 2% erythromycin paste; assay type: in vivo, Staphylococcus aureus; settings: six patients, before phototherapy
Method: as §1, §2, §3, §4

[3] = tested on: MRSA colonization in the nares; assay: Human study Part One: nasal colonization of MRSA, NOVEON laser alone, with H2O2 or with topical erythromycin; assay type: in vivo, Staphylococcus aureus
Method: (§5) This investigational protocol was an open-label study of subjects who are colonized with MRSA in the nares (nostril). The study was done in two parts.
(§6) In this human study, three arms were produced. […] This was done on day 1 and again on day three; and Arm #3: ⅓ of the subjects were treated with the laser and then a topical antibiotic three times a day for five days. Prior to enrollment in this study, prospective subjects met all of the following criteria: age≧18 years and ≦70 years of age; previous positive MRSA culture; negative urine pregnancy test or post-menopausal for one year; willing to comply with study requirements, including return visits and self-application of topical antibiotics; and willing to provide informed consent to participate. Prospective subjects were excluded from this study if any of the following criteria were met: pregnancy; patients who are severely immunocompromised (such as may occur in AIDS, renal transplant regimens, immunosuppressed states consequent to malignancy or agents used in rendering oncologic care, or who suffer from end stage renal disease); diabetic patients; allergy to antimicrobials being used in the study (group 3).
(§7) All participants underwent an initial quantitative assessment for nasal carriage of S. aureus, during their first visit. Each participant had the anterior nares (each nostril) sampled for culture with a circular movement (three rotations on each side) of a sterile wood applicator plain Rayon® tipped swab in each nostril and placed in a labeled tube. 2 ml of room temp phosphate buffered saline was placed in the tube after the removal of the swab (to completely cover the swab in the tube). Each swab was then placed back in the tube and the tube was then vortexed for 15 seconds to disperse isolates of MRSA and/or MSSA into the PBS solution. Aliquots of PBS from the tube were plated in the following manner: 100 μl from each tube was lawn plated in triplicate (3×) on selective Chromogenic MRSA And MSSA agar. Plates were placed in incubator within 30 minutes of the plating procedure, and colonies were counted manually, and recorded 18 hrs after plating.
(§8) On day one of the study, all subjects underwent this exact procedure in arms 1 and 2 of the study two minutes before the laser procedure. They again were sampled in the same manner 2 minutes after the laser procedure. In the third arm of the study, they were swabbed two minutes before the procedure and the first antibiotic administration was completed after the laser therapy. The post/laser swab sample was taken for this arm 20 min later.
(§9) On day three of the study, all subjects from arms one two and three underwent the exact same procedures as day 1 of the study.
(§10) On day five all subjects from all arms underwent just one swabbing per nostril with the exact same sampling procedure one time.
(§11) 3% OTC hydrogen peroxide was applied to a cotton pledget for application to the subject prior to irradiation. This was inserted in the nose for 120 seconds and then removed. The subjects were then given doses of phototherapeutic near infrared radiation as described.
(§12) The subjects were first given doses of phototherapeutic near infrared radiation as described. […] The swab was inserted approximately 1 cm in to the anterior nares and rotated 360 degrees several times and removed. Patients were instructed to perform the exact application procedure 3 times a day for the remaining 5 days.
(§13) The NOVEON™ laser was used for two (2) six-minute treatments in each nostril on day (1) and day (3) of the study.
(§14) The laser was calibrated before the first treatment of the day. Intermittent temperature testing of the treatment site was performed on each subject using a noncontact infrared thermometer (Raytek Minitemp), 30-60 second intervals. If a temperature of 110 F degrees was reached, or the patient complained of pain, the laser treatment was interrupted and only resumed when the patient was comfortable.

[4] = tested on: MRSA; assay: MRSA CFU counts on agar with trimethoprim or erythromycin after sub-lethal NIMELS laser (Example VIII); assay type: cell-based, Staphylococcus aureus
Excerpt: The following illustrates the general antibacterial methods according to the invention, using a MRSA model for the in vitro Experiments V and VIII-XII.
a) μ1 is sub-lethal dosimetry from the NIMEL laser system on MRSA as a control and;

[5] = tested on: MSSA colonies in the nares; assay: Human study Part One: nasal colonization of MSSA, NOVEON laser alone, with H2O2 or with topical erythromycin; assay type: in vivo, Staphylococcus aureus; settings: patient 01-005, Laser/erythromycin arm
Method: as §5, §6, §7, §8, §9, §10, §11, §12, §13, §14

[6] = tested on: MRSA; assay: MRSA/antimicrobial potentiation Experiment 4: CFU with or without methicillin, penicillin G or erythromycin, groups A4 to F4; assay type: cell-based, Staphylococcus aureus; settings: for CFU: agar with 4 μg/ml erythromycin
Method: Two different laser dosages based on an effective dose established in previous experiments were used to treat a saline-suspension of logarithmically growing MRSA, labeled A4 to F4.
After 24 hrs of growth at 37° C. colonies were counted.

[7] = patient 01-005, Laser/erythromycin arm, 2% erythromycin paste 3 times a day

CC[C@H]1OC(=O)[C@H](C)[C@@H](O[C@H]2C[C@@](C)(OC)[C@@H](O)[C@H](C)O2)[C@H](C)[C@@H](O[C@@H]2O[C@H](C)C[C@H](N(C)C)[C@H]2O)[C@](C)(O)C[C@@H](C)C(=O)[C@H](C)[C@@H](O)[C@]1(C)O [Erythromycin]
erythromycin resistance of cultured MSSA at baseline [1]: resistant to erythromycin | erythromycin resistance of cultured MRSA at baseline [2]: resistant to erythromycin | outcome on MRSA colonization (in words) ([3]; patient 01-005, Laser/erythromycin arm): MRSA and MSSA eradication in both nostrils | reduction of bioburden, heavily colonized nostril [3, 7]: ≥ 3 log | reduction of bioburden, moderately colonized nostril [3, 7]: ≥ 2 log | sensitivity of the patient's MRSA colony to erythromycin before phototherapy ([3]; patient 01-005, prior to phototherapy): not sensitive to erythromycin prior to phototherapy | MRSA colony count, EXPERIMENTAL, erythro 4 ug/ml ([4]; sub-lethal NIMELS laser, then plated on agar with erythromycin 4 ug/ml, plates B-4 1 to 5): 27 and 39 and 35 and 28 | effect of sub-lethal NIMELS on antibiotic resistance of MRSA (in words) ([4]; sub-lethal laser parameters, erythromycin 4 ug/ml): resistance to erythromycin being reversed | outcome on MSSA colonization (in words) [5]: MRSA and MSSA eradication in both nostrils | CFU ([6]; Group E4, Exp (laser treated), replicate plates 1-5): 0 CFU (3×) and 1 CFU (2×) | CFU ([6]; Group F4, Cont (no laser), replicate plates 1-5, 24 hrs 37° C.): 170 CFU | CFU ([6]; Group F4, Exp (laser treated), replicate plates 1-5): 2 CFU and 7 CFU and 6 CFU (2×) and 8 CFU | synergy or potentiation with NIMELS in growth inhibition of MRSA colonies (in words) ([6]; sub-lethal NIMELS dosimetry, bar chart figure): synergistic effects; also recorded: potentiated to a greater extent | reversal of MRSA resistance in vitro by dual wavelength NOVEON laser (in words) ([6]; temperature levels not lethal to the organism): successful reversal of MRSA resistance
